Test results from article PMC12970513, “Unsaturated Phosphorus Electrophiles to Probe Protein Tyrosine Phosphatases” (Angewandte Chemie (International Ed. in English), 2026).

Assays:
[1] = Stability of SM-PN and SM-PO in aqueous buffer by 31P NMR; assay type: physicochemical; conditions: room temperature
Procedure: Next, we assessed the stability of the phosphonamidic and phosphonic acid in aqueous buffers at pH 2, pH 3.5, pH 7.4, pH 8.5, and pH 11. Therefore, SM‐PN and SM‐PO were added in the corresponding buffers and monitored for 48 h at room temperature via ^31P‐NMR with triphenylphosphinoxide (TPPO) as an internal standard (Figure S2). […] Furthermore, we evaluated the stability of the peptide probes bio‐PN and bio‐PO in human lysate for subsequent experiments. These peptides were added in HEK293T cell lysate, and changes in stability were recorded for 18 h via ^31P‐NMR, in which inorganic phosphate served as an internal standard. […] Nonetheless, both peptides display sufficient stability for follow‐up studies.
Figure S2: pH dependent stability of phosphonamidic and phosphonic acids at room temperature monitored by ^31P NMR. a) Decay of starting material SM-PN. […] At pH 2.0 the compound was already hydrolyzed in minutes before the next measurement. b) Decay of SM-PO in identical conditions.
Internal standard triphenylphosphine oxide (TPPO, 12 µL of a 100 mM stock in DMSO, final concentration 2 mM) and SM-PN or SM-PO (36 µL of a 50 mM stock in DMSO, final concentration 3 mM) were added in microcentrifuge tubes containing 552 µL of each test buffer solution (0.1% TFA pH 2, 50 mM NaOAc pH 3.5, 50 mM Tris pH 7.4, 50 mM Tris pH 8.5, 50 mM TEAB pH 11.0, containing 10% D2O (492 μL buffer and 60 μL D2O) and mixed right before the measurement. The mixtures were transferred to NMR tubes and one-dimensional ^31P-NMR spectra were recorded for each sample at room temperature, in intervals of 4 h over the course of 48 h on a Bruker AV-III 600 or AV-III 300 spectrometer. For analysis, the spectra were plotted in MestReNova and the intensity of the ^31P-NMR signal was analyzed by integration.

[2] = Thiol reactivity with glutathione (UPLC-UV/MS); conditions: 1 mM compound, 10 mM GSH (10 equivalents), 25°C / room temperature, 16 h, caffeine (peptides) or TPPO (SM) internal standard, n = 3; for consumption of starting material to glutathione adduct, pH 7.4: Tris pH 7.4, 10% DMSO; for consumption of starting material to glutathione adduct, pH 8.5: Tris pH 8.5, 10% DMSO
Procedure: After verifying the stability of the phosphonamidic and phosphonic acid warheads at physiological and slightly basic pH, we aimed to investigate the reactivity towards endogenous thiol concentrations. For this, 1 mM bio‐PN or bio‐PO and 1 mM caffeine as an internal standard, as well as 1 mM SM‐PN or SM‐PO and 1 mM TPPO (internal standard), were incubated at room temperature with 10 equivalents (10 mM) glutathione (GSH), and the outcome was followed by UPLC‐MS (Figure S4).
FIGURE 3 Time‐dependent decay of bio‐PN, bio‐PO, SM‐PN, and SM‐PO (1 mM) in the presence of 10 mM GSH with 1 mM caffeine or TPPO as internal standard. The assay was performed at 25°C in Tris buffer (10% DMSO) at (a) pH 7.4, (b) pH 8.5. Results are presented as mean ± standard deviation (n = 3). (c) Labeling conditions to assess by ESI‐MS the ability of bio‐PN, bio‐PO, SM‐PN, and SM‐PO to covalently bind recombinant PTP1B. Stacked deconvoluted MS spectra of the initial time point (t0) of PTP1B labeling with (d) bio‐PO after 4 h: full labeling, (e) bio‐PN after 20 h: ∼80% labeling, (f) SM‐PO after 20 h: no labeling, (g) SM‐PN after 20 h: no labeling.
Figure S4: Monitoring of thiol reactivity with GSH as a model thiol of peptide and small molecule phosphonamidic and phosphonic acids by UPLC-UV/MS. a) Reaction conditions for bio-PN and bio-PO. b) Exemplary UV chromatograms of bio-PO at pH 8.5 and at 0 and 16 hours, highlighting the internal standard (caffeine) and the compound. c) Reaction conditions for SM-PN and SM-PO. d) Exemplary UV chrommatogramms of SM-PN at pH 8.5 and at 0 and 16 hours, highlighting the internal standard (TPPO) and the compound. All experiments were prepared in triplicates. [picture]
For testing the thiol reactivity of bio-PN and bio-PO at pH 7.4, 10 µL of a 10 mM caffeine (internal standard) stock solution in Tris buffer pH 7.4 (final concentration 1 mM) and 10 µL of a 10 mM peptide stock solution in DMSO were added in 75 µL of 50 mM Tris buffer, pH 7.4. Immediately prior to the measurement, 5 µL of a 200 mM stock solution of reduced glutathione (final concentration 10 mM, 10.0 eq.) in Tris buffer (pH adjusted to 7.4) were added. The solutions were transferred to a sample vial and measured by UPLC-UV/MS at room temperature and at time points t0, t0.5h, t1h, t2h, t4h, t8h, t16h 1 µL of the reaction mixture was injected. For the analysis, the peak area of the internal standard was correlated with that of the starting material. The same protocol was followed at pH 8.5 using Tris buffer adjusted accordingly.
Similar conditions were applied in the case of SM-PN and SM-PO. […]

SMILES | stability at all tested pH values ([1]; pH 2, pH 3.5, pH 7.4, pH 8.5 and pH 11, 3 mM compound, 48 h) | consumption of starting material to glutathione adduct, pH 7.4 [2] | consumption of starting material to glutathione adduct, pH 8.5 [2] | stability in neutral and basic pH ([1]; 50 mM Tris pH 7.4, 50 mM Tris pH 8.5, 50 mM TEAB pH 11.0, 3 mM compound, 48 h) | hydrolysis ([1]; pH 2 (0.1% TFA), 3 mM compound, TPPO internal standard) | hydrolysis of the starting material ([1]; pH 3.5 (50 mM NaOAc), 3 mM compound, 10% D2O, TPPO internal standard, 48 h)
C#CP(=O)(O)Oc1ccc(CCNC(=O)CCCC[C@@H]2SC[C@@H]3NC(=O)N[C@@H]32)cc1 [SM-PO, 4-(2-biotinamidoethyl)phenyl ethynylphosphonic acid monoester] | excellent stability in all tested pH values | no consumption of the starting material to a glutathione adduct was observed | no consumption of the starting material to a glutathione adduct was observed | – | – | –
C#CP(=O)(O)Nc1ccc(CCNC(=O)CCCC[C@@H]2SC[C@@H]3NC(=O)N[C@@H]32)cc1 [SM-PN, N-(4-(2-biotinamidoethyl)phenyl)-P-ethynylphosphonamidic acid] | – | no consumption of the starting material to a glutathione adduct was observed | no consumption of the starting material to a glutathione adduct was observed | good stability in neutral and basic pH | already hydrolyzed in a few minutes | about 80%
